Where two headings read alike, the source gives them in different places.
Columns and labels:
[1] = Microsomal stability, human liver microsomes (predicted hepatic clearance); conditions: predicted from in vitro microsomal stability data
GLP-1R = GLP-1R (Homo sapiens, UniProt P43220); assay: GLP-1R activation: cAMP increase in CHO cells stably expressing GLP-1R; type: cell-based
[2] = cAMP increase, CHO cells stably expressing GLP-1R, 10 point dose response, 30 minutes incubation, read-out: EC50

Chain of GLP-1R (P43220 24-463): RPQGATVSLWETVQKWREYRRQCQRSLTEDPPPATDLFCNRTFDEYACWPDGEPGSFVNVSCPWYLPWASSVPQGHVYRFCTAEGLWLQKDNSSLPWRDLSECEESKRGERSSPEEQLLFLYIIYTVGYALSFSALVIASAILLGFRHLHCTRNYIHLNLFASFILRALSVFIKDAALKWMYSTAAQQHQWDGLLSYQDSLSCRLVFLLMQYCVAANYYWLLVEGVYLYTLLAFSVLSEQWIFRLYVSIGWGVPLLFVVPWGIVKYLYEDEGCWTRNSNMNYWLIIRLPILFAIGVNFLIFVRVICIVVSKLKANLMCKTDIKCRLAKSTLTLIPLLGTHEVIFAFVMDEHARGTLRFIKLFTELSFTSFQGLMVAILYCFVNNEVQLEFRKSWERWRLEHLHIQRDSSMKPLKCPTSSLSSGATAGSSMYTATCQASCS

| Structure (SMILES) | Predicted Hepatic Clearance (Pred. Cl.) [1] | EC50 (GLP-1R; [2]) | EC50 (GLP-1R; read-out: EC50) | EC50 (GLP-1R; EC50 (nM)) |
| --- | --- | --- | --- | --- |
| COCCn1c([C@@H](C)c2ccc(-c3cccc(OCc4ccc(C#N)cc4F)n3)cc2)nc2ccc(C(=O)O)cc21 (racemic) [Example 447, 2-(1-(4-(6-((4-cyano-2-fluorobenzyl)oxy)pyridin-2-yl)phenyl)ethyl)-1-(2-methoxyethyl)-1H-benzo[d]imidazole-6-carboxylic acid] | 0.3 L/h/kg | 1100 nM |  |  |
| N#Cc1ccc(COc2cccc(-c3cc(F)c(Cc4nc5ccc(C(=O)O)cc5n4C4CCOCC4)cc3F)n2)c(F)c1 [Example 547, 2-(4-(6-((4-cyano-2-fluorobenzyl)oxy)pyridin-2-yl)-2,5-difluorobenzyl)-1-(tetrahydro-2H-pyran-4-yl)-1H-benzo[d]imidazole-carboxylic acid] | 0.44 L/h/kg | 3.43 nM |  |  |
| CO[C@H](C)Cn1c(Cc2ccc(-c3cccc(OCc4ccc(C#N)cc4F)n3)cc2F)nc2ccc(C(=O)O)cc21 [Example 327, (R)-2-(4-(6-((4-cyano-2-fluorobenzyl)oxy)pyridin-2-yl)-2-fluorobenzyl)-1-(2-methoxypropyl)-1H-benzo[d]imidazole-6-carboxylic acid] | 0.18 L/h/kg | 7.73 nM |  |  |
| COC(CNC(C)=O)Cn1c(Cc2ccc(-c3cccc(OCc4ccc(C#N)cc4F)n3)cc2F)nc2ccc(C(=O)O)cc21 (single isomer, unassigned) [Example 342, 1-(3-acetamido-2-methoxypropyl)-2-(4-(6-((4-cyano-2-fluorobenzyl)oxy)pyridin-2-yl)-2-fluorobenzyl)-1H-benzo[d]imidazole-6-carboxylic acid] | 0.24 L/h/kg | 3360 nM |  |  |
| COCCn1c(Cc2ccc(-c3cccc(OCc4ccc(C#N)cc4F)n3)cc2F)nc2ccc(C(=O)O)nc21 [Example 200, 2-(4-(6-((4-cyano-2-fluorobenzyl)oxy)pyridin-2-yl)-2-fluorobenzyl)-3-(2-methoxyethyl)-3H-imidazo[4,5-b]pyridine-5-carboxylic acid] | 0.17 L/h/kg | 18 nM |  |  |
| COCCn1c(Cc2ccc(-c3cccc(OCc4ccc(C#N)cc4F)n3)c(Cl)c2)nc2ccc(C(=O)O)cc21 [Example 101, 2-(3-chloro-4-(6-((4-cyano-2-fluorobenzyl)oxy)pyridin-2-yl)benzyl)-1-(2-methoxyethyl)-1H-benzo[d]imidazole-6-carboxylic acid] | 0.4 L/h/kg | 25.9 nM |  |  |
| C[C@]1(Cn2c(Cc3ccc(-c4cccc(OCc5ccc(C#N)cc5F)n4)cc3F)nc3ccc(C(=O)O)cc32)CCO1 [Example 123, (R)-2-(4-(6-((4-cyano-2-fluorobenzyl)oxy)pyridin-2-yl)-2-fluorobenzyl)-1-((2-methyloxetan-2-yl)methyl)-1H-benzo[d]imidazole-6-carboxylic acid] | 0.31 L/h/kg | 3.12 nM |  |  |
| N#Cc1ccc(COc2ccc(F)c(-c3ccc(Cc4nc5ccc(C(=O)O)cc5n4C[C@@H]4CCO4)cc3)n2)c(F)c1 [Example 794] | 0.37 L/h/kg | 0.97 nM |  |  |
| N#Cc1ccc(COc2ccc(F)c(-c3cc(F)c(Cc4nc5c(F)cc(C(=O)O)cc5n4CC45COC(C4)C5)cc3F)n2)c(F)c1 [Example 782] | 0.67 L/h/kg | 3.31 nM |  |  |
| CC(=O)N1CC[C@@H]1Cn1c(Cc2cc(F)c(-c3cccc(OCc4ccc(C#N)cc4F)n3)cc2F)nc2ccc(C(=O)O)cc21 [Example 925, (R)-1-((1-acetylazetidin-2-yl)methyl)-2-(4-(6-((4-cyano-2-fluorobenzyl)oxy)pyridin-2-yl)-2,5-difluorobenzyl)-1H-benzo[d]imidazole-6-carboxylic acid] | 0.35 L/h/kg |  | 3.63 nM |  |
| COCCn1c(Cc2ccc(-c3cccc(OCc4c(F)cc(Cl)cc4OC)n3)cc2F)nc2ccc(C(=O)O)cc21 [Example 435, 2-(4-(6-((4-chloro-2-fluoro-6-methoxybenzyl)oxy)pyridin-2-yl)-2-fluorobenzyl)-1-(2-methoxyethyl)-1H-benzo[d]imidazole-6-carboxylic acid] | 0.37 L/h/kg | 8.7 nM |  |  |
| N#Cc1ccc(COc2cccc(-c3cc(F)c(Cc4nc5ccc(C(=O)O)cc5n4C[C@H]4COCCO4)cc3F)n2)c(F)c1 [Example 641] | 0.17 L/h/kg | 65.9 nM |  |  |
| N#Cc1ccc(COc2cccc(-c3cc(F)c(Cc4nc5ccc(C(=O)O)cc5n4C4CCCC4(F)F)cc3F)n2)c(F)c1 (centres unmarked) [Example 700] | 0.31 L/h/kg | 3.48 nM |  |  |
| COCCn1c(Cc2ccc(-c3cccc(OCc4ccc(C#N)cc4F)n3)cc2F)nc2ccc(C(=O)O)c(Cl)c21 [Example 366, 7-chloro-2-(4-(6-((4-cyano-2-fluorobenzyl)oxy)pyridin-2-yl)-2-fluorobenzyl)-1-(2-methoxyethyl)-1H-benzo[d]imidazole-6-carboxylic acid] | 0.33 L/h/kg | 20.8 nM |  |  |
| N#Cc1ccc(COc2cccc(-c3cc(F)c(Cc4nc5ccc(C(=O)O)cc5n4C[C@@H]4CC(F)(F)CO4)cc3F)n2)c(F)c1 (racemic) [Example 573, 2-(4-(6-((4-cyano-2-fluorobenzyl)oxy)pyridin-2-yl)-2,5-difluorobenzyl)-1-((4,4-difluorotetrahydrofuran-2-yl)methyl)-1H-benzo[d]imidazole-6-carboxylic acid] | 0.39 L/h/kg | 0.89 nM |  |  |
| COCCn1c(Cc2ccc(-c3cccc(OCc4ccc(C#N)cc4)n3)cc2F)nc2ccc(C(=O)O)cc21 [Example 499, 2-(4-(6-((4-cyanobenzyl)oxy)pyridin-2-yl)-2-fluorobenzyl)-1-(2-methoxyethyl)-1H-benzo[d]imidazole-6-carboxylic acid] | 0.21 L/h/kg |  |  | 8.18 nM |

| Structure (SMILES) | Predicted Hepatic Clearance (Pred. Cl.) [1] | EC50 (GLP-1R; [2]) | EC50 (GLP-1R; read-out: EC50) | EC50 (GLP-1R; EC50 (nM)) |
| --- | --- | --- | --- | --- |
| N#Cc1ccc(COc2ccc(F)c(-c3cc(F)c(Cc4nc5c(F)cc(C(=O)O)cc5n4CC4(CF)CC4)cc3F)n2)c(F)c1 [Example 760] | 0.39 L/h/kg | 0.26 nM |  |  |
| COCCn1c(Cc2cc(F)c(-c3cccc(OCc4ccc(C#N)cc4F)n3)cc2Cl)nc2ccc(C(=O)O)cc21 [Example 304, 2-(2-chloro-4-(6-((4-cyano-2-fluorobenzyl)oxy)pyridin-2-yl)-5-fluorobenzyl)-1-(2-methoxyethyl)-1H-benzo[d]imidazole-6-carboxylic acid] | 0.32 L/h/kg | 0.5 nM |  |  |
| COCCn1c(Cc2ccc(-c3cccc(OCc4cccc5ncsc45)n3)cc2F)nc2ccc(C(=O)O)cc21 [Example 148, 2-(4-(6-(benzo[d]thiazol-7-ylmethoxy)pyridin-2-yl)-2-fluorobenzyl)-1-(2-methoxyethyl)-1H-benzo[d]imidazole-6-carboxylic acid] | 0.69 L/h/kg | 2050 nM |  |  |
| O=C(O)c1ccc2nc(Cc3c(F)cc(-c4cccc(OCc5ccc(C(F)F)cc5F)n4)c(F)c3F)n(C[C@@H]3CCO3)c2c1 [Example 758] | 0.27 L/h/kg | 0.03 nM |  |  |
| COC[C@@H](c1ccccc1)n1c(Cc2cc(F)c(-c3cccc(OCc4ccc(C#N)cc4F)n3)cc2F)nc2ccc(C(=O)O)cc21 [Example 716] | 0.13 L/h/kg | 2740 nM |  |  |
| O=C(O)c1ccc2nc(Cc3ccc(-c4cccc(OCc5ccc(Cl)nc5)n4)c(F)c3)n(C[C@@H]3CCO3)c2c1 [Example 806] | 0.43 L/h/kg | 0.54 nM |  |  |
| COCCn1c(Cc2ccc(-c3cccc(OCc4ccc(C#N)cc4F)n3)cc2OC(F)F)nc2ccc(C(=O)O)cc21 [Example 42, 2-(4-(6-((4-cyano-2-fluorobenzyl)oxy)pyridin-2-yl)-2-(difluoromethoxy)benzyl)-1-(2-methoxyethyl)-1H-benzo[d]imidazole-6-carboxylic acid] | 0.23 L/h/kg | 38.2 nM |  |  |
| COCCn1c(Cc2cc(F)c(-c3cccc(OCc4ccc(Cl)cn4)n3)cc2F)nc2ccc(C(=O)O)cc21 [Example 869] | 0.39 L/h/kg | 6.28 nM |  |  |
| O=C(O)c1ccc2nc(Cc3cc(F)c(-c4ccnc(OCc5ccc(C(F)F)cc5F)n4)cc3F)n(C[C@@H]3CCO3)c2c1 [Example 801] | 0.19 L/h/kg | 0.12 nM |  |  |
| COCCn1c(Cc2c(F)cc(-c3cncnc3OCc3ccc(C#N)cc3F)cc2F)nc2ccc(C(=O)O)cc21 [Example 189, 2-(4-(4-((4-cyano-2-fluorobenzyl)oxy)pyrimidin-5-yl)-2,6-difluorobenzyl)-1-(2-methoxyethyl)-1H-benzo[d]imidazole-carboxylic acid] | 0.51 L/h/kg | 3050 nM |  |  |
| CO[C@H]1COC[C@H]1n1c(Cc2cc(F)c(-c3cccc(OCc4ccc(C#N)cc4F)n3)cc2F)nc2ccc(C(=O)O)cc21 (single isomer, unassigned) [Example 891, 2-(4-(6-((4-cyano-2-fluorobenzyl)oxy)pyridin-2-yl)-2,5-difluorobenzyl)-1-(cis-4-methoxytetrahydrofuran-3-yl)-1H-benzo[d]imidazole-6-carboxylic acid] | 0.40 L/h/kg | 0.25 nM |  |  |
| COCCn1c(Cc2cc(F)c(-c3ccc(F)c(OCc4ccc(C#N)cc4F)n3)cc2C)nc2ccc(C(=O)O)cc21 [Example 673] | 0.27 L/h/kg | 3.54 nM |  |  |
| N#Cc1ccc(COc2nccc(-c3cc(F)c(Cc4nc5ccc(C(=O)O)cc5n4CCOC4CC4)cc3F)n2)c(F)c1 [Example 897] | 0.13 L/h/kg | 4.1 nM |  |  |
| COCCn1c(Cc2cc(F)c(-c3cccc(OCc4ccc(C#N)cc4F)n3)cc2F)nc2cc(OC)c(C(=O)O)cc21 [Example 836] | 0.11 L/h/kg | 9.29 nM |  |  |
| O=C(O)c1ccc2nc(Cc3cc(F)c(-c4cccc(OCc5ccc(Cl)nc5OC(F)F)n4)cc3F)n(C[C@@H]3CCO3)c2c1 [Example 759] | 0.11 L/h/kg | 0.64 nM |  |  |
